Source: ChEMBL document CHEMBL5212743, “Selectivity Literature for EUbOPEN Chemogenomics Library wave 3” (2023)
One block for each compound: values may come before it.

Legend:
[1] = target: Cyclin-dependent kinase 8 (Homo sapiens) (UniProt P49336); experiment: Selectivity interaction (KinomeScan (DiscoverX)) EUB0000239b CDK8; settings: at 1 µM
[2] = target: Homeodomain-interacting protein kinase 1 (Homo sapiens, UniProt Q86Z02); experiment: Selectivity interaction (KinomeScan (DiscoverX)) EUB0000239b HIPK1; settings: at 1 µM
[3] = target: Sodium/nucleoside cotransporter 2 (Homo sapiens) (UniProt O43868); experiment: Selectivity interaction (Enzyme panel (receptors, ion channels, enzymes, and transporters)) EUB0000239b SLC28A2; settings: at 10 µM
[4] = target: Serine/threonine-protein kinase Nek3 (Homo sapiens) (UniProt P51956); experiment: Selectivity interaction (KinomeScan (DiscoverX)) EUB0000239b NEK3; settings: at 1 µM
[5] = target: Cathepsin G (Homo sapiens) (UniProt P08311); experiment: Selectivity interaction (Protease panel (enzymatic assay)) EUB0000239b CTSG; settings: at 10 µM
[6] = test system: T1, Receptor-type tyrosine-protein kinase FLT3 (Homo sapiens), P36888 [N841I]; experiment: Selectivity interaction (KinomeScan (DiscoverX)) EUB0000239b FLT3; settings: at 1 µM
T1 sequence (whole entry): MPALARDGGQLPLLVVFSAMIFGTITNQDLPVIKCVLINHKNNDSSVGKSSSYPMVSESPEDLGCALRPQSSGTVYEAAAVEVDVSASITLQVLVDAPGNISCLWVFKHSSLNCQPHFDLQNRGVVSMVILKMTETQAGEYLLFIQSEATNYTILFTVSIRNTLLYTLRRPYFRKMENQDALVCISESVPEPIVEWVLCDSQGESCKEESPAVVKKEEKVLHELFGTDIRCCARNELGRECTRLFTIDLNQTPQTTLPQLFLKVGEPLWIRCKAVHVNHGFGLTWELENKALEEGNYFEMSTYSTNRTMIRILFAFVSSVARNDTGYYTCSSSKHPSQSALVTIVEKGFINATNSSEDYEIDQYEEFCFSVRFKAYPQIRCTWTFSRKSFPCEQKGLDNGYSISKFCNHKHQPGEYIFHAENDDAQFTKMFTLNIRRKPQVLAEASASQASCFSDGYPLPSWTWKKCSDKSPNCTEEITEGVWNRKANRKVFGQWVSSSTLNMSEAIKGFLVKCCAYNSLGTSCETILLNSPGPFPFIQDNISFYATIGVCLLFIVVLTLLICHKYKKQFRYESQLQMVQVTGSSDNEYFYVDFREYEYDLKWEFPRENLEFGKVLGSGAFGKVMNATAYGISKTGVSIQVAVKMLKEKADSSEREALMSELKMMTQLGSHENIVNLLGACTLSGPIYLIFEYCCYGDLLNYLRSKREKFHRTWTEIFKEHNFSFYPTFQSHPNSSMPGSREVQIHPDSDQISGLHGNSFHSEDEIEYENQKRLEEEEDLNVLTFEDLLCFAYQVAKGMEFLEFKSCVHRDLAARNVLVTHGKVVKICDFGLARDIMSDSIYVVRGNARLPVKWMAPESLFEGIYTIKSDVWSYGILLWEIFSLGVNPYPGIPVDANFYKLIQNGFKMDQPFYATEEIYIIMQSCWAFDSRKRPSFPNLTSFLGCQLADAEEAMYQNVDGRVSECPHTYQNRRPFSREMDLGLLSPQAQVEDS

[7] = target: Sigma intracellular receptor 2 (Homo sapiens, UniProt Q5BJF2); experiment: Selectivity interaction (GPCR panel (PDSP screen)) EUB0000239b TMEM97; settings: at 10 µM
[8] = test system: Phosphatidylinositol 4,5-bisphosphate 3-kinase catalytic subunit alpha isoform (Homo sapiens), P42336 [E545K]; experiment: Selectivity interaction (KinomeScan (DiscoverX)) EUB0000239b PIK3CA; settings: at 1 µM
[9] = target: Microtubule-associated serine/threonine-protein kinase 1 (Homo sapiens) (UniProt Q9Y2H9); experiment: Selectivity interaction (KinomeScan (DiscoverX)) EUB0000239b MAST1; settings: at 1 µM
[10] = target: Tyrosine-protein kinase ABL1 (Homo sapiens, UniProt P00519); experiment: Selectivity interaction (KinomeScan (DiscoverX)) EUB0000744a ABL1; settings: at 100 nM
[11] = target: Phosphatidylinositol 4,5-bisphosphate 3-kinase catalytic subunit alpha isoform (Homo sapiens, UniProt P42336); experiment: Selectivity interaction (KinomeScan (DiscoverX)) EUB0000744a PIK3CA; settings: at 100 nM
[12] = target: Calcium/calmodulin-dependent protein kinase kinase 1 (Homo sapiens) (UniProt Q8N5S9); experiment: Selectivity interaction (KinomeScan (DiscoverX)) EUB0000167b CAMKK1; settings: at 1 µM
[13] = target: Epidermal growth factor receptor (Homo sapiens, UniProt P00533); experiment: Selectivity interaction (KinomeScan (DiscoverX)) EUB0000722a EGFR; settings: at 1 µM
[14] = target: Ribosomal protein S6 kinase alpha-5 (Homo sapiens) (UniProt O75582); experiment: Selectivity interaction (KinomeScan (DiscoverX)) EUB0000722a RPS6KA5; settings: at 1 µM
[15] = test system: Receptor-type tyrosine-protein kinase FLT3 (Homo sapiens), P36888 [K663Q]; experiment: Selectivity interaction (KinomeScan (DiscoverX)) EUB0000274bCl FLT3; settings: at 1 µM
[16] = target: Ribosomal protein S6 kinase beta-1 (Homo sapiens) (UniProt P23443); experiment: Selectivity interaction (KinomeScan (DiscoverX)) EUB0000274bCl RPS6KB1; settings: at 1 µM

Sigma intracellular receptor 2, sequence (Q5BJF2 whole entry, canonical isoform): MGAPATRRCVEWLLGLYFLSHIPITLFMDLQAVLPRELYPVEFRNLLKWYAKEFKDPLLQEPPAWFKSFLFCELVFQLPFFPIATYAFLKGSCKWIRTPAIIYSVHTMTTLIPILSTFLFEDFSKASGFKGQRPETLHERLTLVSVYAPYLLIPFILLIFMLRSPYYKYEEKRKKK
Phosphatidylinositol 4,5-bisphosphate 3-kinase catalytic subunit alpha isoform (Homo sapiens), P42336 [E545K], sequence (P42336 whole entry E545K, canonical isoform): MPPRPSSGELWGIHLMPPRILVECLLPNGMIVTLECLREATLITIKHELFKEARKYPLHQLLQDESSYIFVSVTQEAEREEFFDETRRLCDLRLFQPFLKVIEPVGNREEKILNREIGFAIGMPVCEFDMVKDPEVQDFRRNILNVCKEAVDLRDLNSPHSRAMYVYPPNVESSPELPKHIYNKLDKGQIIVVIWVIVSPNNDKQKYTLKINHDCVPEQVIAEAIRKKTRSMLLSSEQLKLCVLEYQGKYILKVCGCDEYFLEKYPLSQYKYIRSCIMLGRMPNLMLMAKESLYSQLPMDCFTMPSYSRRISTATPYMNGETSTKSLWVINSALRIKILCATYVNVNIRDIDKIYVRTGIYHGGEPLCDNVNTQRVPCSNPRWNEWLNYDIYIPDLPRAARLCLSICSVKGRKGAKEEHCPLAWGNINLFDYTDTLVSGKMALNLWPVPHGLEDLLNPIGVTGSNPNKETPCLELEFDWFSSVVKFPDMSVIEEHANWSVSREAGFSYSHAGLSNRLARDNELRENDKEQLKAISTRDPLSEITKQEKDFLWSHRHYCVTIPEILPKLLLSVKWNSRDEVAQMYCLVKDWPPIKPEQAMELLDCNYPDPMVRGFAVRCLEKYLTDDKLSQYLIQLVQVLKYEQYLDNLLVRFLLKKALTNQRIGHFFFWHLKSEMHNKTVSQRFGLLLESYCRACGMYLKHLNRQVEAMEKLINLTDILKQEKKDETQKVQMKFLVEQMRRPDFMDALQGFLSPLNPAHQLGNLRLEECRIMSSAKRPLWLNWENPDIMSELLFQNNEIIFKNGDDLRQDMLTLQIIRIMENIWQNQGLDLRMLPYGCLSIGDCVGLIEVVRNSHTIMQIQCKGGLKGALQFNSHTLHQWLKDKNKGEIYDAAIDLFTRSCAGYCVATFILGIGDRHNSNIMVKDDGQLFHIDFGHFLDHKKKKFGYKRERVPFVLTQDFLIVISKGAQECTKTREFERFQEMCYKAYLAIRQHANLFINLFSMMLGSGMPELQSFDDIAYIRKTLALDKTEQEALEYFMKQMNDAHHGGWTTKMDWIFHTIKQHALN
Tyrosine-protein kinase ABL1, sequence (P00519 whole entry, canonical isoform): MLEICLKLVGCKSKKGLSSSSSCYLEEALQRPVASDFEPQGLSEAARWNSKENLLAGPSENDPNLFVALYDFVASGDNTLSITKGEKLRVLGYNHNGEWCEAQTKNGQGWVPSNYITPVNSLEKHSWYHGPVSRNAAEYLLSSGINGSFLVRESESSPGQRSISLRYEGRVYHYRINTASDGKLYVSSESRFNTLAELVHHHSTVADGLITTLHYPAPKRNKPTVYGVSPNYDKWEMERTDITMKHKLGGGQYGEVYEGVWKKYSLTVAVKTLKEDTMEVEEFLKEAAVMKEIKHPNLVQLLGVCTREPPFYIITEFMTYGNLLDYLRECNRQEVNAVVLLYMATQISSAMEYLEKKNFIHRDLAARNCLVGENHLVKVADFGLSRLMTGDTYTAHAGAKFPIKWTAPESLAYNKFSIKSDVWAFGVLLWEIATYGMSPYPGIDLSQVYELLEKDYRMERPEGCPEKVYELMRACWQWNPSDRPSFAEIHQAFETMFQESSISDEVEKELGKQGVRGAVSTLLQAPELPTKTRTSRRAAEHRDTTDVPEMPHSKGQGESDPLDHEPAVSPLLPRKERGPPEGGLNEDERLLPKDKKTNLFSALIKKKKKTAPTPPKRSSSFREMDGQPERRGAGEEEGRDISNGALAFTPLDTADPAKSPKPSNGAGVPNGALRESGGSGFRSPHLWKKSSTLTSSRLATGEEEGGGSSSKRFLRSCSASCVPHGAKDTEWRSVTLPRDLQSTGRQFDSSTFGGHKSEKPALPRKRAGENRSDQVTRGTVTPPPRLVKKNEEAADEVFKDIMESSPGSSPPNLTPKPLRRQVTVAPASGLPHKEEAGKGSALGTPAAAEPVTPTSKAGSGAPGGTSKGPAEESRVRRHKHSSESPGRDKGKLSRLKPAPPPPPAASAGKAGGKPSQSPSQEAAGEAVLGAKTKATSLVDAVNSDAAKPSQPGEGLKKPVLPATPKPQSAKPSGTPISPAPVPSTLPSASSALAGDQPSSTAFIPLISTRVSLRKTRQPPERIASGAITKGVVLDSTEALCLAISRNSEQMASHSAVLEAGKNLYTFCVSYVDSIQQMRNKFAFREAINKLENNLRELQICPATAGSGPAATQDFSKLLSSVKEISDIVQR
Cyclin-dependent kinase 8 (Homo sapiens), sequence (P49336 whole entry): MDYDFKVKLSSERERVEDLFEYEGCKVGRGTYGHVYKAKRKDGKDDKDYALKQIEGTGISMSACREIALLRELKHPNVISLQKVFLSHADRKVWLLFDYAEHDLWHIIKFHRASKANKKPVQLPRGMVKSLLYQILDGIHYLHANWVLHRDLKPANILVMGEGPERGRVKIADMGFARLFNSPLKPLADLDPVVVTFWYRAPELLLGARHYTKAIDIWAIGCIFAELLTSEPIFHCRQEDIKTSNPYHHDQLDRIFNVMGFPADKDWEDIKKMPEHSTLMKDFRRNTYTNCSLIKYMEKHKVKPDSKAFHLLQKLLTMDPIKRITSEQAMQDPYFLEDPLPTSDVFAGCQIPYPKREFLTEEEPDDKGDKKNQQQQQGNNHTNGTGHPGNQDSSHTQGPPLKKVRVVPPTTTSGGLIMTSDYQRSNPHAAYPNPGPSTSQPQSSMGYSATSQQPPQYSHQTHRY
Calcium/calmodulin-dependent protein kinase kinase 1 (Homo sapiens), sequence (Q8N5S9 whole entry, looked up): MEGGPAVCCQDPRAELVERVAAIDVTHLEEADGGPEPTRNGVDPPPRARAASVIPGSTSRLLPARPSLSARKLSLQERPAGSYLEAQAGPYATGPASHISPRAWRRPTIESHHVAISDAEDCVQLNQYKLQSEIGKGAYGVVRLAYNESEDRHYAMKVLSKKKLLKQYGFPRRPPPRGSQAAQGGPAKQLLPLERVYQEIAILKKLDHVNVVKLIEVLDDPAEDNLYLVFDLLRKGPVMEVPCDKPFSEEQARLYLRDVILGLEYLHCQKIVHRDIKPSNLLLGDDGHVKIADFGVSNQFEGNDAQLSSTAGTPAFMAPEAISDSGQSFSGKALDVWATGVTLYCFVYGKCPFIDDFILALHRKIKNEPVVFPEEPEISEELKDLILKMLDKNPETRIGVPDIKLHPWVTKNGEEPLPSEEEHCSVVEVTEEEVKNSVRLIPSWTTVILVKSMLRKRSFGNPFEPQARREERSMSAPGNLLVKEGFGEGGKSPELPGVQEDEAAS
Cathepsin G (Homo sapiens), sequence (P08311 whole entry): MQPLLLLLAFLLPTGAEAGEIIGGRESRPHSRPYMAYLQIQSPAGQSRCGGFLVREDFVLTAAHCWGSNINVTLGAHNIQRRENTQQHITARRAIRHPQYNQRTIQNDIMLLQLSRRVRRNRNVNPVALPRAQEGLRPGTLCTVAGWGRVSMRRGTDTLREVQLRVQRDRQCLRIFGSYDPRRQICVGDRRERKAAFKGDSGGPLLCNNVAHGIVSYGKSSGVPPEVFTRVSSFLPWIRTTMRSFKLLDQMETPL
Serine/threonine-protein kinase Nek3 (Homo sapiens), sequence (P51956 whole entry): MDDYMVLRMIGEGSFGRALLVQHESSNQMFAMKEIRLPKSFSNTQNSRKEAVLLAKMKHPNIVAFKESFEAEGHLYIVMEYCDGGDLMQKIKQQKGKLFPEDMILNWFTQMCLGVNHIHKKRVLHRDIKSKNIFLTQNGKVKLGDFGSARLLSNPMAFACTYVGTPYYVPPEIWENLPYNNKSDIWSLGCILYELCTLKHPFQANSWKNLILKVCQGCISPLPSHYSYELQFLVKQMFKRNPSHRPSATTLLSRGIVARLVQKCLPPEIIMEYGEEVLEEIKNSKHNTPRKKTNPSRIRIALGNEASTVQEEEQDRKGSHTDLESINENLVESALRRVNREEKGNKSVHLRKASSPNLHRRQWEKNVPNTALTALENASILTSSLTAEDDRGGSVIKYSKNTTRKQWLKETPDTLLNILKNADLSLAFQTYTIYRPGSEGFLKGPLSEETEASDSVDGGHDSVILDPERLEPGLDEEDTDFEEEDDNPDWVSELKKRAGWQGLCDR
Ribosomal protein S6 kinase alpha-5 (Homo sapiens), sequence (O75582 whole entry, looked up): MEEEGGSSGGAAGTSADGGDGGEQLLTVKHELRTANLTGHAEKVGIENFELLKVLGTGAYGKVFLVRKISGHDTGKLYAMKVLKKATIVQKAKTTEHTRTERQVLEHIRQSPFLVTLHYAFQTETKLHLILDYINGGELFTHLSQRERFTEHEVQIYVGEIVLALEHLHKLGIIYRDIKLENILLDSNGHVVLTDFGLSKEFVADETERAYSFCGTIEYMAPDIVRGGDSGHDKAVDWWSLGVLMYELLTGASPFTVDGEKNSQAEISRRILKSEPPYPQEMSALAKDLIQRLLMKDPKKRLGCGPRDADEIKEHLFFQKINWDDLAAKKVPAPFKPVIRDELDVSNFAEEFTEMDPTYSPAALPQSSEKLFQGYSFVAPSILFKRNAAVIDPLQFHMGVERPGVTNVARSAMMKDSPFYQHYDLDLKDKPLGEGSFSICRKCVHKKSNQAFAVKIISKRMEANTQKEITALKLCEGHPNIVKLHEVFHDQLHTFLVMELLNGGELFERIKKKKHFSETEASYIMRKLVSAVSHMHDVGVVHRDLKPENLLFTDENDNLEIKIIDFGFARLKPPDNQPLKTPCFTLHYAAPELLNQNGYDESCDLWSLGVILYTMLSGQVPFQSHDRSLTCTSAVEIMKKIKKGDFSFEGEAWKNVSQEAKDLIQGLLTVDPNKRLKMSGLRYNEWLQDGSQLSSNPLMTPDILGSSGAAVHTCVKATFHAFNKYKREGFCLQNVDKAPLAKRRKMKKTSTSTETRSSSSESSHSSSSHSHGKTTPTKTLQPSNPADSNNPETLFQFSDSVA
Phosphatidylinositol 4,5-bisphosphate 3-kinase catalytic subunit alpha isoform, sequence (P42336 whole entry, canonical isoform): as the sequence (P42336 whole entry E545K, canonical isoform) above, with K545E counted along it

% of control [1]: 39% | % of control [2]: 40% | % of inhibition [3]: 52% | % of control [4]: 40% | % of inhibition [5]: 7% | % of control [6]: 23% | % of inhibition [7]: 49.9% | % of control [8]: 48% | % of control [9]: 43%
SMILES: CO[C@@H](C)c1c(Nc2ccc([C@H](N(C)C(=O)C3CCS(=O)(=O)CC3)C(F)(F)F)cc2)cnc2cc(Cl)nn12

% of control [10]: 53% | % of control [11]: 53%
SMILES: CC(C)CC(=O)N1CCc2nc(-c3ccc(Br)cc3)nc(N(C)Cc3ccccc3)c2C1

% of control [12]: 12%
SMILES: Cc1cccc(-c2cnc3occ(-c4ccc(C(=O)O)c(C5CCCC5)c4)c3c2)c1

% of control [13]: 27% | % of control [14]: 35%
SMILES: CCN(Cc1ccc(Cl)cc1)c1ncc(C(=O)NCCCN2CCCC2=O)c(NC2CCCC2)n1

% of control [15]: 30% | % of control [16]: 34%
SMILES: O=C(O)c1cc(-c2ccc(C3CCNCC3)cc2)c2ccc(-c3ccc(C(F)(F)F)cc3)cc2c1
